# Source: US20160376240A1, “6 Phenyl or 6 Pyridin 3 YL Indazole Derivatives and Methods of Use” (ABBVIE INC., priority 2014, published 2016)
# Target: T1, TrkA (Homo sapiens, UniProt P04629)
# T1 construct: purchased Invitrogen PV3144
# Experiment: TrkA kinase inhibition, HTRF assay
# Format: biochemical
# Conditions: LCK peptide substrate 125 nM, TrkA 2-10 nM pre-incubated with ATP 200 μM
# Protocol: TrkA, TrkB, and TrkC enzymes were obtained from Invitrogen (as catalog numbers PV3144, PV3616, and PV3617, respectively). The ability of a compound to inhibit the enzymatic activity of the TrkA, TrkB, and TrkC enzymes was determined in separate assays. Enzyme activity was measured in an HTRF® (homogeneous time resolved fluorescence) assay, which detects enzymatic phosphorylation of a biotinylated synthetic peptide substrate (an LCK peptide analog, biotin-ahx-GAEEEIYAAFFA, from Genemed Synthesis). Phosphorylation is assessed by HTRF® in the presence of an anti-phosphotyrosine antibody conjugated to Eu^3+ cryptate (Cisbio) as donor fluorophore, and streptavidin conjugated to allophycocyanin (ProZyme) as acceptor fluorophore. The HTRF® signal was detected at two different wavelengths (620 nm and 665 nm) which were used to calculate the fluorescence ratio.
# Each enzyme was titrated to a concentration optimized to ensure accurate measurement of the initial reaction rate. To allow the Trk enzymes to undergo activation and auto-phosphorylation, a 20 minute pre-incubation with ATP was carried out (at twice the final targeted enzyme and ATP concentration) prior to addition of test compound and the peptide substrate.
# TrkA in vitro assays were performed by pre-incubating TrkA (2-10 nM) with ATP (200 μM) for 20 minutes at ambient temperature in 50 mM HEPES pH 7.4, 10 mM MgCl2, 2 mM MnCl2, 100 μM Na3VO4, 1 mM dithiothreitol, 0.01% BSA (bovine serum albumin). Then, to the activated Trk enzyme mixture was added the test compound in 2% dimethyl sulfoxide. After 10 minutes, the peptide substrate (125 nM) was added. After 1 hour, enzyme reactions were terminated by addition of equal reaction volumes of detection/stop reagent (containing 0.2 μg/mL anti-phosphotyrosine monoclonal antibody labeled with europium from Cisbio (catalog# PT66-K), and 4 μg/mL PhycoLink® Streptavidin-Allophycocyanin conjugate from ProZyme (catalog# PJ25S) in 60 mM EDTA in 40 mM HEPES pH 7.4, 480 mM KF, 0.01% Tween® 20 and 0.1% BSA bovine serum albumin) Reaction plates were stored at 4° C. overnight before reading the fluorescence ratio signal on a PerkinElmer EnVision™ fluorescence detector. Individual reaction wells were stopped at time points to obtain reaction rates. The test inhibitor compounds were assayed in duplicate, at half-log serial dilutions over a range of concentrations (e.g. starting at 50 μM or 5 μM as the high compound concentration). The percent Trk enzyme inhibition was calculated from the initial rates of the inhibited reactions relative to the uninhibited control. IC50 values were calculated by fitting the inhibition percent to the concentration of inhibitor [I] in the assay in equation 1 below, to solve for the IC50.
# Inhibition %=100[I]/([I]+[IC50]) equation 1
# T1 sequence (P04629 33-796): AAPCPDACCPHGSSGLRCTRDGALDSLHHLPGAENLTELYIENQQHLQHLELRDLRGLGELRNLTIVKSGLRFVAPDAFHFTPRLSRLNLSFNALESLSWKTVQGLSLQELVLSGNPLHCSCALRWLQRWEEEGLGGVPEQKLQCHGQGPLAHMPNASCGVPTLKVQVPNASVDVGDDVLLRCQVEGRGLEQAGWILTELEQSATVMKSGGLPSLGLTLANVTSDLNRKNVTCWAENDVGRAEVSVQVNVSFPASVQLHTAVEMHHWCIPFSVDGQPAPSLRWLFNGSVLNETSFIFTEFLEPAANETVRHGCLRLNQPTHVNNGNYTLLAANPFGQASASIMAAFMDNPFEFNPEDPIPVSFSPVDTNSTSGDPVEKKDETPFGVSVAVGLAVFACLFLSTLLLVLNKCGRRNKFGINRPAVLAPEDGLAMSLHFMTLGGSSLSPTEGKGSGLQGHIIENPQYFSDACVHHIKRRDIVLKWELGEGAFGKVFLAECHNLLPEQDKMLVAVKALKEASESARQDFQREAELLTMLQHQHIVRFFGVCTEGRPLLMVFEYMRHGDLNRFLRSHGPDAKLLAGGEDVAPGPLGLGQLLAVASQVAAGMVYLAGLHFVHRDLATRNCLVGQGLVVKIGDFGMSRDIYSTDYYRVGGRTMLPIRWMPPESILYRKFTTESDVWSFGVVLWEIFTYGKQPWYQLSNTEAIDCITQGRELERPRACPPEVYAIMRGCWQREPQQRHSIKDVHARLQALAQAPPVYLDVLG
row,Compound,IC50 [nM]
1,"CC(=O)Nc1ccc(-c2cc(OC3CCOCC3)c3c(C)n[nH]c3c2)cc1N1CCN(Cc2ccc(Cl)o2)CC1 [Example 150, N-(2-{4-[(5-chloro-2-furyl)methyl]piperazin-1-yl}-4-[3-methyl-4-(tetrahydro-2H-pyran-4-yloxy)-1H-indazol-6-yl]phenyl)acetamide]",74.5
2,"CC(O)c1ccc(-c2cc(OC3CCOCC3)c3c(N)n[nH]c3c2)cc1N1CCN(c2cccnc2)CC1 (stereo not shown) [Example 22, 1-{4-[3-amino-4-(tetrahydro-2H-pyran-4-yloxy)-1H-indazol-6-yl]-2-[4-(pyridin-3-yl)piperazin-1-yl]phenyl}ethanol]",254
3,"CC(=O)c1ccc(-c2cc(OC3CCOCC3)c3c(N)n[nH]c3c2)cc1N1CCN(C2CCCCC2)CC1 [Example 19, 1-{4-[3-amino-4-(tetrahydro-2H-pyran-4-yloxy)-1H-indazol-6-yl]-2-(4-cyclohexylpiperazin-1-yl)phenyl}ethanone]",38.1
4,"CNC(=O)c1ccc(-c2cc(OC3CCOCC3)c3c(N)n[nH]c3c2)cc1N1CCN(CC2CC(F)(F)C2)CC1 [Example 171, 4-[3-amino-4-(tetrahydro-2H-pyran-4-yloxy)-1H-indazol-6-yl]-2-{4-[(3,3-difluorocyclobutyl)methyl]piperazin-1-yl}-N-methylbenzamide]",5.5
5,"CC(Oc1cc(-c2ccc(C(=O)NC3CC3)c(N3CCN(c4cccnc4)CC3)c2)cc2[nH]nc(N)c12)C(F)(F)F (stereo not shown) [Example 28, 4-{3-amino-4-[(1,1,1-trifluoropropan-2-yl)oxy]-1H-indazol-6-yl}-N-cyclopropyl-2-[4-(pyridin-3-yl)piperazin-1-yl]benzamide]",41
6,"CC(=O)Nc1ccc(-c2cc(OC3CCOCC3)c3c(C)n[nH]c3c2)cc1N1CCN(Cc2cccc(F)c2)CC1 [Example 149, N-{2-[4-(3-fluorobenzyl)piperazin-1-yl]-4-[3-methyl-4-(tetrahydro-2H-pyran-4-yloxy)-1H-indazol-6-yl]phenyl}acetamide]",25
7,"CNC(=O)c1ccc(-c2cc(OC3CCOCC3)c3cn[nH]c3c2)cc1N1CCN(C2CCCCC2)CC1 [Example 116, 2-(4-cyclohexylpiperazin-1-yl)-N-methyl-4-[4-(tetrahydro-2H-pyran-4-yloxy)-1H-indazol-6-yl]benzamide]",77.8
8,"CC(=O)Nc1ccc(-c2cc(OC3CCCC3)c3c(C)n[nH]c3c2)cc1NCCOc1ccccc1 [Example 127, N-{4-[4-(cyclopentyloxy)-3-methyl-1H-indazol-6-yl]-2-[(2-phenoxyethyl)amino]phenyl}acetamide]",49
9,"Cc1n[nH]c2cc(-c3ccc(C(=O)NC4CCC4)c(N4CCN(C5CCCCC5)CC4)c3)cc(OC3CCOCC3)c12 [Example 118, N-cyclobutyl-2-(4-cyclohexylpiperazin-1-yl)-4-[3-methyl-4-(tetrahydro-2H-pyran-4-yloxy)-1H-indazol-6-yl]benzamide]",39.8
10,"CC(=O)C(=O)Nc1ccc(-c2cc(OC3CCOCC3)c3c(C)n[nH]c3c2)cc1N1CCN(C2CCCCC2)CC1 [Example 133, N-{2-(4-cyclohexylpiperazin-1-yl)-4-[3-methyl-4-(tetrahydro-2H-pyran-4-yloxy)-1H-indazol-6-yl]phenyl}-2-oxopropanamide]",15.9
11,"Cc1n[nH]c2cc(-c3ccc(C(N)=O)c(N4CC5(CN(CC(F)(F)F)C5)C4)c3)cc(OC3CCOCC3)c12 [Example 166, 4-[3-methyl-4-(tetrahydro-2H-pyran-4-yloxy)-1H-indazol-6-yl]-2-[6-(2,2,2-trifluoroethyl)-2,6-diazaspiro[3.3]hept-2-yl]benzamide]",1040
12,"CNC(=O)c1ccc(-c2cc(O[C@H](C)C(F)(F)F)c3c(N)n[nH]c3c2)cc1N1CCN2CCCCC2C1 (stereo partly drawn) [Example 57, 4-(3-amino-4-{[(2R)-1,1,1-trifluoropropan-2-yl]oxy}-1H-indazol-6-yl)-N-methyl-2-(octahydro-2H-pyrido[1,2-a]pyrazin-2-yl)benzamide]",6320
13,"NC(=O)c1ccc(-c2cc(OC3CCCC3)c3c(N)n[nH]c3c2)cc1N1CCN(c2ccccn2)CC1 [Example 75, 4-[3-amino-4-(cyclopentyloxy)-1H-indazol-6-yl]-2-[4-(pyridin-2-yl)piperazin-1-yl]benzamide]",2.31
14,"CNC(=O)c1ccc(-c2cc(O[C@@H](C)C(F)(F)F)c3c(N)n[nH]c3c2)cc1N1CCN(CCC(C)(C)C)CC1 [Example 40, 4-(3-amino-4-{[(2S)-1,1,1-trifluoropropan-2-yl]oxy}-1H-indazol-6-yl)-2-[4-(3,3-dimethylbutyl)piperazin-1-yl]-N-methylbenzamide]",71.4
15,"CNC(=O)c1ccc(-c2cc(OC3CCOCC3)c3c(N)n[nH]c3c2)cc1N1CCN(C(=O)OC(C)C)CC1 [Example 114, isopropyl 4-{5-[3-amino-4-(tetrahydro-2H-pyran-4-yloxy)-1H-indazol-6-yl]-2-(methylcarbamoyl)phenyl}piperazine-1-carboxylate]",80.8
16,"CC(C)(C)C(=O)N1CCN(c2cc(-c3cc(OC4CCOCC4)c4c(N)n[nH]c4c3)ccc2C(=O)NC2CC2)CC1 [Example 25, 4-[3-amino-4-(tetrahydro-2H-pyran-4-yloxy)-1H-indazol-6-yl]-N-cyclopropyl-2-[4-(2,2-dimethylpropanoyl)piperazin-1-yl]benzamide]",188

# Continued by falling IC50, values first:
row,IC50 [nM],Compound
1,173,"NC(=O)c1ccc(-c2cc(O[C@H]3CCOC3)c3c(N)n[nH]c3c2)cc1N1CCN(C2CC2)CC1 [Example 65, 4-{3-amino-4-[(3S)-tetrahydrofuran-3-yloxy]-1H-indazol-6-yl}-2-(4-cyclopropylpiperazin-1-yl)benzamide]"
2,89.2,"CC(=O)N1CCN(c2cc(-c3cc(OC(C)C(F)(F)F)c4c(N)n[nH]c4c3)ccc2C(N)=O)CC1 (stereo not shown) [Example 96, 2-(4-acetylpiperazin-1-yl)-4-{3-amino-4-[(1,1,1-trifluoropropan-2-yl)oxy]-1H-indazol-6-yl}benzamide]"
3,44.4,"CNC(=O)c1ccc(-c2cc(O[C@H](C)C(F)(F)F)c3c(N)n[nH]c3c2)cc1N1CCN(C2CCCC2)CC1 [Example 53, 4-(3-amino-4-{[(2R)-1,1,1-trifluoropropan-2-yl]oxy}-1H-indazol-6-yl)-2-(4-cyclopentylpiperazin-1-yl)-N-methylbenzamide]"
4,36.4,"CC(=O)c1ccc(-c2cc(OC3CCOCC3)c3c(N)n[nH]c3c2)cc1N1CCN(CCC(C)(C)C)CC1 [Example 18, 1-{4-[3-amino-4-(tetrahydro-2H-pyran-4-yloxy)-1H-indazol-6-yl]-2-[4-(3,3-dimethylbutyl)piperazin-1-yl]phenyl}ethanone]"
5,31.9,"Cc1n[nH]c2cc(-c3ccc(C(N)=O)c(N4CCN(C(=O)OC(C)(C)C)CC4)c3)cc(OC3CCOCC3)c12 [Example 140, tert-butyl 4-{2-carbamoyl-5-[3-methyl-4-(tetrahydro-2H-pyran-4-yloxy)-1H-indazol-6-yl]phenyl}piperazine-1-carboxylate]"
6,26.8,"CNC(=O)c1ccc(-c2cc(OC3CCOCC3)c3c(N)n[nH]c3c2)cc1N1CCN(C(=O)OC(C)(C)C)CC1 [Example 111, tert-butyl 4-{5-[3-amino-4-(tetrahydro-2H-pyran-4-yloxy)-1H-indazol-6-yl]-2-(methylcarbamoyl)phenyl}piperazine-1-carboxylate]"
7,22.7,"Cc1n[nH]c2cc(-c3ccc(C(N)=O)c(N4CCN(CC(F)(F)F)CC4)c3)cc(OC3CCOCC3)c12 [Example 157, 4-[3-methyl-4-(tetrahydro-2H-pyran-4-yloxy)-1H-indazol-6-yl]-2-[4-(2,2,2-trifluoroethyl)piperazin-1-yl]benzamide]"
8,19.4,"CC(Oc1cc(-c2ccc(C(N)=O)c(N3CCN(C(=O)C4CC4)CC3)c2)cc2[nH]nc(N)c12)C(F)(F)F (stereo not shown) [Example 103, 4-{3-amino-4-[(1,1,1-trifluoropropan-2-yl)oxy]-1H-indazol-6-yl}-2-[4-(cyclopropylcarbonyl)piperazin-1-yl]benzamide]"
9,9.59,"CC(=O)c1ccc(-c2cc(OC3CCOCC3)c3c(N)n[nH]c3c2)cc1N1CCN(c2ncccn2)CC1 [Example 15, 1-{4-[3-amino-4-(tetrahydro-2H-pyran-4-yloxy)-1H-indazol-6-yl]-2-[4-(pyrimidin-2-yl)piperazin-1-yl]phenyl}ethanone]"
